From US20260258370A1, “METHOD FOR OBTAINING A NEUROMUSCULAR ORGANOID AND USE THEREOF” (Universiteit Antwerpen, priority 2021, published 2026)

Assays:
Type in all cases: cell-based, human
[1] = system: PI3K-Akt signaling pathway; assay: p-Akt/Akt protein level ratio normalized to β-actin in treated CMT1A iPSC-derived organoids; conditions: Day 25, normalized to β-actin
CMT1A organoids [2] = assay: g-ratio of myelinated axons by transmission electron microscopy in CMT1A organoids; conditions: Day 25, TEM
CMT1A organoids [3] = assay: Myelin periodic line distance (myelin compaction) by transmission electron microscopy in CMT1A organoids

Q: Which p-Akt/Akt ratio [1] does the source give for “shRNA-2: Short-hairpin RNA against human PMP22, region CDS (SEQ ID NO 10), Sigma Mission pLKO.1-library, lentivirally transduced (guide CCGGCCTGTTCTTCTGCCAACTCTTCTCGAGAAGAGTTGGCAGAAGAACAGGTTTTTG)” here?
A: The p-Akt/Akt ratio was “reduced p-Akt/Akt ratio could be reversed”.

Q: What about the g-ratio of axons (CMT1A organoids [2]) of the same substance?
A: The g-ratio of axons was “significantly increased the g-ratio”.

Q: And the “myelin periodic line distance (myelin compaction)” value (CMT1A organoids [3]; high concentration (75 μL) of shRNA lentivirus)?
A: The value was “restored the myelin periodic line distance back to control levels”.

Q: What about the “myelin periodic line distance (myelin compaction)” value (CMT1A organoids [3]; low concentration (25 μL) of shRNA lentivirus) of the same substance?
A: The value was “partially improved myelin compaction”.
